Measured values taken from patent publication US12103952B2, “Methods for expressing proteins in axons” (Cornell University, priority 2010, dated 2024).
Non-standard residues stand in square brackets, D forms with d. Residues, ends and D or L forms follow the SMILES beside them. Nle = CCCC[C@H](N)C(=O)O

Columns and labels:
Format in all cases: cell-based, rat
[1] = tested on: CREB; experiment: CREB levels in severed axons by immunofluorescence; conditions: severed axons, inhibitor present during NGF removal
Method: FIGS. 7A-B are results showing the axonal translation and retrograde transport of endogenous CREB. (A) CREB levels in severed axons of E15 DRGs were assayed by immunofluorescence with a CREB-specific antibody. CREB was depleted on removal of NGF, with near complete loss of fluorescence signals by 3 hours. […] The error bars represent s.e.m. (n=40). (B) CREB is depleted from axon terminals in a microtubule-dependent manner. CREB levels in severed axons were monitored, as in A, after removal and restoration of NGF, in the presence of LLnL or colchicine. Colchicine, but not LLnL, blocked the reduction in CREB levels following removal of NGF. The error bars represent s.e.m. (n=40).
E15 rat or E13 mouse embryonic dorsal root ganglion (DRG) explants were plated on glass-bottom culture dishes (MatTek) or glass coverslips pre-coated with 33 μg/ml poly-D-lysine and 1 μg/ml laminin. CREB^α/Δ−/+ animals used to generate CREB^α/Δ−/− embryos were from Jackson Labs. E15 dissociated DRG neurons were prepared as described by Wu et al., Nature 436, 1020-1024 (2005). DRGs were cultured in B27/Neurobasal medium (Invitrogen) supplemented with 100 ng/ml nerve growth factor (NGF) and […] 5′-fluorodeoxyuridine (5-FdU) for 3 days. siRNA-mediated knockdown in DRG neurons has been described previously by Higuchi et al., Biochemical & Biophysical Research Communications 301, 804-809 (2003) and was performed using siRNAs listed in Table S3. For measurements of CREB levels in isolated axons, axons were severed from cell bodies by removing the explant with a flame-sharpened Pasteur pipette (Wu et al., Nature 436, 1020-1024 (2005)). Modified Boyden chambers were based on the procedure of Twiss (Zheng et al., Journal of Neuroscience 21, 9291-9303 (2001)) and modified to obtain distal axons as described by Wu et al., Nature 436, 1020-1024 (2005). mRNA from harvested axons (Wu et al., Nature 436, 1020-1024 (2005)) was used to prepare a cDNA library using a modified, unbiased single cell protocol as described below. See also Tietjen et al., Neuron 38, 161-175 (2003). Compartmented (Campenot) cultures were prepared as described below. See also Campenot, Proc Natl Acad Sci USA 74, 4516-4519 (1977)).
Images and measurements of signals in axons were taken from the terminal 50 μm of the axon, except where indicated. Analyzed axons were a minimum of 2000 μm for all experiments. DRGs were fixed with 4% PFA in CBS overnight at 4° C., permeabilized with 0.5% Triton X-100/TBS, and blocked in 4% BSA/TBS for 1 hour. DRGs were labeled with antibodies (Table S4) in 2% BSA/0.1% Triton X-100/TBS overnight at 4° C. For image acquisition details, see below.
The axonal localization of CREB was also examined by immunofluorescence. Axons were severed from cultured DRG explants to rule out potential contributions from anterograde transport of cell body-derived CREB. […] Although the majority of CREB protein localized to the nucleus, with substantially lower levels in axons (FIG. 4D), the immunofluorescence signal in axons was specific. Similar immunofluorescence staining was seen using a different CREB-specific antibody that recognized a non-overlapping epitope.
The importin proteins, which bind nuclear-localization sequences (NLS) (Goldfarb et al., Trends in Cell Biology 14, 505-514 (2004)), are present in axons and mediate the retrograde trafficking of axonally-injected fluorescently-labeled NLS peptides (Hanz et al., Neuron 40, 1095-1104 (2003)). Since CREB contains a NLS that mediates its nuclear localization (Waeber & Habener, Mol Endocrinol 5, 1418-1430 (1991)), axonal CREB may be retrogradely transported to the cell body. To determine if endogenously-expressed CREB is retrogradely trafficked, we examined the time course of CREB reduction in axons upon replacement of media with NGF-free media. […]

[2] = tested on: CREB reporter mRNA translation in DRG axons; experiment: myr-dEGFP3′CREB Sindbis translation reporter in axons; conditions: 40 μM LLnL, within 5 min, myr-dEGFP3′CREB-infected axons
Excerpt: FIGS. 5A-C are results showing NGF-dependent translation of a CREB reporter mRNA in axons. (A) Schematic diagram of the Sindbis viral reporter construct used to monitor CREB translation. The reporter contains a myristoylated, destabilized EGFP (myr-dEGFP) with the 3′UTR of CREB, expressed under control of the Sindbis subgenomic promoter (PSG). (B) E15 DRG explant cultures were infected with Sindbis constructs expressing myr-dEGFP3′CREB on DIV3 and fluorescence (bottom panel) and phase (top panel) images, approximately 1000 μm from the cell body were collected after 24 hours. Fluorescence images are shown in inverted contrast in order to more readily visualize puncta. Scale bar, 25 μm. […] EGFP fluorescence co-localizes with a population of S6-labeled ribosomal clusters. […]
FIGS. 6A-H are data showing that axonal CREB is specifically translated in response to NGF. […] (B) E15 DRG explant cultures were infected with Sindbis constructs expressing myr-dEGFP3′RhoA or myr-dEGFP3′H1f0 on DIV3 and fluorescence images were collected after 24 h. […] (D) Axons from DIV3 DRGs were analyzed for CREB and mitochondrial localizations by immunofluorescence using CREB-specific and VDAC/porin1-specific antibodies. […] CREB mRNA was detected by FISH using a CREB specific riboprobe. […] (H) Axons of DIV3 DRG explant cultures were analyzed by immunofluorescence for NGF effectors CREB, pTrkA and pErk5 at 3 DIV. […]

[3] = tested on: E15 DRG explant cultures; experiment: Retrograde transport of photoactivatable Dendra-CREB reporter; conditions: in presence of inhibitor
Method: FIGS. 8A-D are results showing the retrograde transport of a photoactivatable fluorescent CREB reporter protein. (A) E15 DRG explant cultures were infected with Sindbis constructs expressing Dendra or Dendra-CREB transcripts. Dendra and Dendra-CREB were visualized as green fluorescence (top panel), and growth cone-localized Dendra[-CREB] was photoactivated to its red form by 50 ms illumination of the boxed regions with a 408 nm laser. Movement of photoactivated Dendra signals was analyzed within the axon determined by green Dendra fluorescence mask. […] Photoactivated Dendra[-CREB] images are shown inverted in order to more readily visualize signals. Scale bar, 10 μm. (B) Quantification of data in (A). […] The expected diffusion rate of Dendra-CREB was calculated at various elapsed time points, using a previously measured diffusion coefficient (D) in neurons (Bloodgood & Sabatini, Science 310, 866-869 (2005)), in the formula x^2=(2Dt), where x is the average displacement. […] (C) Dendra or Dendra-CREB was photoactivated by 1 s illumination of a 40 μm axon segment approximately 1 mm from its respective cell body and levels of photoactivated Dendra fluorescence were analyzed in the respective cell nucleus. […] (D) Quantification of data in (C). n=10 cells per data point. *p=0.0012. […]

## CCCC[C@@H](C=O)NC(=O)[C@H](CC(C)C)NC(=O)[C@H](CC(C)C)NC(C)=O [LLnL] (Ac-Leu-Leu-[Nle]-aldehyde)
[1]
  reduction of CREB levels upon removal of NGF: unaffected
[2]
  eGFP fluorescence signal: increased twofold

## COc1cc2c(c(OC)c1OC)-c1ccc(OC)c(=O)cc1[C@@H](NC(C)=O)CC2 [colchicine]
[1]
  reduction of CREB levels upon removal of NGF: abolished the reduction in CREB levels
[3]
  retrograde transport of Dendra-CREB: significantly blocked

## C=C(CC)C(=O)c1ccc(OCC(=O)O)c(Cl)c1Cl [ethacrynic acid]
[3]
  retrograde transport of Dendra-CREB: significantly blocked
